Earlier results in patent publication US20060281913A1, “Process for the production of crystalline xylose from sugar cane bagasse, crystalline xylose obtained by said process, process for the production of xylitol from the said xylose and crystalline xylitol obtained thereby” (priority 2003, published 2006).
Where two headings read alike, the source gives them in different places.

Tests used:
[1] = relative to sucrose

| Structure (SMILES) | solubility in methanol, ethanol and isopropanol | solubility in water | sweetening power ([1]; in words) | sweetening power ([1]; data collected from the literature) |
| --- | --- | --- | --- | --- |
| OC[C@@H](O)[C@H](O)[C@@H](O)CO [crystalline xylitol, xylitol] | low solubility | high solubility | equivalent to that of sucrose | – |
| O=C[C@H](O)[C@@H](O)[C@H](O)CO [crystalline xylose, xylose] | sparingly soluble | highly soluble | – | ~67 % that of sucrose |
